Assay results published in patent US20210353593A1 (Chinook Therapeutics, Inc., priority 2019, published 2021).
Positions of bridges follow the written chain, without caps; N, C: chain ends. No end group written: not given here.

Test system: IL-6 production in primary human mesangial cells
Assay: ET-1 induced IL-6 production (ELISA) in primary human renal mesangial cells
Assay type: cell-based

Question: How did the “increase in IL-6 production by primary human mesangial cells” value (exposed to ET-1 over 48 hours) turn out when “ET-1: endothelin 1, used to stimulate primary human mesangial cells (CSCSSLMDKECVYFCHLDIIW; disulfide 1-15, 3-11; ends not checked; UniProt P05305 53-73, looked up)” was run?
Answer: Its value is roughly 6 fold.

Question: And the “increase in IL-6 production by primary human mesangial cells” value (exposed to ET-1 over 72 hours)?
Answer: Its value is roughly 2.2 fold.
